# Laboratory results reported in patent US6630191B1, “Aspartyl dipeptide ester derivatives and sweeteners” (Ajinomoto Co., Inc., priority 1998, dated 2003).
# Marks after values point to notes of the source that are not given here.
# Columns and labels:
# [1] = Sensory evaluation of sweetening potency relative to sugar (4% sucrose aqueous solution); settings: for Sweetening Potency / Sweetening Potency, compensated value as optical isomer: Relative to sweetening potency of a 4% sucrose aqueous solution; for Sweetening potency (relative to sugar): sensory evaluation; for Sweetening Potency, compensated value as optical isomer: compensated value as optical isomer (DL-homophenylalanine derivatives)
# From the text: For example, the sweetening potency of N-[N-[3-(3-hydroxy-4-methoxyphenyl)propyl]-L-α-aspartyl]-L-(α-methyl)phenylalanine 1-methyl ester was approximately 18,000 times (relative to sugar), that of N-[N-[3-(3-methoxy-4-hydroxyphenyl)propyl]-L-α-aspartyl]-L-(α-methy)phenylalanine 1-methyl ester was approximately 18,000 times (relative to sugar), that of N-[N-[3-(3-hydroxy-4-methoxyphenyl)propyl]-L-α-aspartyl]-3-cyclohexyl-L-alanine 1-methyl ester was approximately 25,000 times (relative to sugar), that of N-[N-[3-(3-methoxy-4-hydroxyphenyl)propyl]-L-α-aspartyl]-3-cyclohexyl-L-alanine 1-methyl ester was approximately 25,000 times (relative to sugar), that of N-[N-[3-(3-methyl-4-hydroxyphenyl)propyl]-L-(α-aspartyl]-3-cyclohexyl-L-alanine 1-methyl ester was approximately 40,000 times (relative to sugar).
# With respect to the aspartyl dipeptide derivatives (represented by the following general formula (5)) formed, the structures and the results of the sensory evaluation are shown in Table 1. [drawing 4]
# [2] = reported in WO 94/11391; cited from earlier work
SMILES,Sweetening Potency [1],Sweetening potency (relative to sugar) [1],other results
"COC(=O)C(C)(Cc1ccccc1)NC(=O)C(CC(=O)O)NCCCc1ccc(OC)cc1O [Compound 11, N-[N-[3-(2-Hydroxy-4-methoxyphenyl)propyl]-L-α-aspartyl]-L-(α-methyl) Phenylalanine 1-Methyl Ester]",15000,"15,000 times",
"COC(=O)C(NC(=O)C(CC(=O)O)NCCCc1ccc(O)c(OC)c1)c1ccccc1 [Compound 6, N-[N-[3-(3-Methoxy-4-hydroxyphenyl)propyl]-L-α-aspartyl]-L-phenylglycin 1-Methyl Ester]",700,700 times,
"COC(=O)C(NC(=O)C(CC(=O)O)NCCCc1ccc(OC)c(O)c1)c1ccccc1 [Compound 5, N-[N-[3-(3-Hydroxy-4-methoxyphenyl)propyl]-L-α-aspartyl]-L-phenylglycin 1-Methyl Ester]",1600,"1,600 times",
"COC(=O)C(Cc1ccc(O)cc1)NC(=O)C(CC(=O)O)NCCC(C)(C)C [N-[N-(3,3-dimethylbutyl)-L-α-aspartyll-L-tyrosine 1-methyl ester]",,,"Sweetening potency, times that of sugar [2]: 4,000 times"
"COC(=O)[C@H](CC1CCCCC1)NC(=O)[C@H](CC(=O)O)NCCCc1ccc(OC)c(O)c1 [Compound 3, N-[N-[3-(3-Hydroxy-4-methoxyphenyl)propyl]-L-α-aspartyl]-3-cyclohexyl-L-alanine 1-Methyl Ester]",25000,"25,000 times","Sweetening potency (relative to sugar) ([1]; listed as N-[N-[3-(3-hydroxy-4-methoxyphenyl)propyl]-L-α-aspartyl]-3-cyclohexyl-L-alanine): approximately 25,000 times"
"COC(=O)[C@H](CC1CCCCC1)NC(=O)[C@H](CC(=O)O)NCCCc1ccc(O)c(OC)c1 [Compound 4, N-[N-(3-(3-Methoxy-4-hydroxyphenyl)propyl]-L-α-aspartyl]-3-cyclohexyl-L-alanine 1-Methyl Ester]",25000,"25,000 times","Sweetening potency (relative to sugar) ([1]; listed as N-[N-[3-(3-methoxy-4-hydroxyphenyl)propyl]-L-α-aspartyl]-3-cyclohexyl-L-alanine): approximately 25,000 times"
COC(=O)[C@H](Cc1ccccc1)NC(=O)[C@H](CC(=O)O)NCCCc1ccccc1 [N-[N-(3-phenylpropyl)-L-α-aspartyl]-L-phenylalanine 1-methyl ester],,,"Sweetening potency, times that of sugar [2]: 1,500 times"
"COC(=O)[C@](C)(Cc1ccccc1)NC(=O)[C@H](CC(=O)O)NCCCc1ccc(OC)c(O)c1 [Compound 1, N-[N-[3-(3-Hydroxy-4-methoxyphenyl)propyl]-L-α-aspartyl]-L-(α-methyl)phenylalanine 1-Methyl Ester]",18000,"18,000 times","Sweetening potency (relative to sugar) ([1]; listed as N-[N-[3-(3-hydroxy-4-methoxyphenyl)propyl]-L-α-aspartyl]-L-(α-methyl)phenylalani): approximately 18,000 times"
"CCCOC(=O)[C@@H](C)NC(=O)[C@H](CC(=O)O)NCCCc1ccc(O)c(OC)c1 [Compound 10, N-[-[3-(3-Methoxy-4-hydroxyphenyl)propyl]-α-aspartyl]-D-alanine 1-n-Propyl Ester]",600,600 times,
"COC(=O)C(CCc1ccccc1)NC(=O)[C@H](CC(=O)O)NCCCc1ccc(O)c(OC)c1 (mixture of isomers) [Compound 8, N-[N-[3-(3-Methoxy-4-hydroxyphenyl)propyl]-L-α-aspartyl]-DL-homophenylalanine 1-Methyl Ester]",,"1,200 times","Sweetening Potency, compensated value as optical isomer [1]: 2400^2)"
COC(=O)[C@H](Cc1ccccc1)NC(=O)[C@H](CC(=O)O)NCCCc1ccc(O)c(OC)c1 [N-[N-[3-(3-methoxy-4-hydroxyphenyl)propyl]-L-α-aspartyl]-L-phenylalanine 1-methyl ester],,,"Sweetening potency, times that of sugar [2]: 2,500 times"
"COC(=O)[C@H](Cc1ccccc1)NC(=O)[C@H](CC(=O)O)NCCC(C)(C)C [N-[N-(3,3-dimethylbutyl)-L-α--aspartyl]-L-phenylalanine 1-methyl ester]",,,"Sweetening potency, times that of sugar [2]: 10,000 times"
"CCCOC(=O)[C@@H](C)NC(=O)[C@H](CC(=O)O)NCCCc1ccc(OC)c(O)c1 [Compound 9, N-[N-[3-(3-Hydroxy-4-methoxyphenyl)propyl]-L-α-aspartyl]-D-alanine 1-n-Propyl Ester]",800,800 times,
"COC(=O)[C@H](CC1CCCCC1)NC(=O)[C@H](CC(=O)O)NCCCc1ccc(O)c(C)c1 [Compound 12, N-[N-(3-(3-Methyl-4-hydroxyphenyl)propyl]-L-α-aspartyl]-3-cyclohexyl-L-anine 1-Methyl Ester]",40000,"40,000 times","Sweetening potency (relative to sugar) ([1]; listed as N-[N-[3-(3-methyl-4-hydroxyphenyl)propyl]-L-(α-aspartyl]-3-cyclohexyl-L-alanine): approximately 40,000 times"
Cc1ccc(CCCN[C@@H](CC(=O)O)C(=O)N[C@@H](CC2CCCCC2)C(=O)O)c(O)c1 [Compound 13],25000,"25,000 times",
"COC(=O)[C@](C)(Cc1ccccc1)NC(=O)[C@H](CC(=O)O)NCCCc1ccc(O)c(OC)c1 [Compound 2, N-(N-(3-(3-Methoxy-4-hydroxyphenyl)propyl]-L-α-aspartyl]-L-(α-methyl)phenylalanine 1-Methyl Ester]",18000,"18,000 times","Sweetening potency (relative to sugar) ([1]; listed as N-[N-[3-(3-methoxy-4-hydroxyphenyl)propyl]-L-α-aspartyl]-L-(α-methy)phenylalanin): approximately 18,000 times"
"COC(=O)C(CCc1ccccc1)NC(=O)[C@H](CC(=O)O)NCCCc1ccc(OC)c(O)c1 (mixture of isomers) [Compound 7, N-[N-[3-(3-Hydroxy-4-methoxyphenyl)propyl]-L-α-aspartyl]-DL-homophenylalanine 1-Methyl Ester]",,"1,000 times","Sweetening Potency, compensated value as optical isomer [1]: 2000^2)"
